Laboratory results: patent US9572788B2, “Cell permeable inhibitors of anaphase promoting complex” (President and Fellows of Harvard College, priority 2014, dated 2017)

Tests used:
[1] = system: APC/C; assay: ^35S-labeled substrate degradation in mitotic Xenopus egg extract; format: biochemical; details: 200 μM
Description: Mitotic extracts were pretreated with DMSO or compounds for 10 min. Substrates were expressed and ^35S-methionine labeled using the TNT system from Promega and added to the extract at 10% final volume.
Substrates consisted of human full length cyclin B1, cyclin A2, securin, Nek2A, or an N-terminal fragment of human cyclin B1 (residues 1-88). Each substrate was amplified with primers by PCR to allow T7-dependent transcription of the PCR product. Substrates were expressed and labeled with ^35S-methionine (Perkin Elmer NEG709A500UC) using the TNT system from Promega. […] The in vitro-translation reaction was then added to the mitotic Xenopus extract at 10% final volume. Extracts were then incubated at 24° C., with shaking at 1250 rpm, with samples taken at indicated times. Reactions were quenched with SDS sample buffer and processed for SDS-PAGE and phosphoimaging (Bio-Rad PMI) and quantification was performed using Quantity One software (Bio-Rad).
A 35S-labeled cyclin B1 protein was expressed in reticulocyte lysate, and a 10% volume of this material was added to mitotically arrested Xenopus egg extract, in the presence of DMSO or different concentrations of inhibitors. Aliquots were taken at 0 and 20 minutes, and samples separated by SDS-PAGE and radioactivity measured by quantitative phosphorimager analysis.

[2] = system: Xenopus APC; assay: ^3H-TAME binding assay in interphase extract; details: 200 nM ^3H-TAME
Description: The beads were washed quickly twice with XB high salt and twice with XB.

[3] = target: APC (Xenopus laevis, UniProt A0A1L8ESF3); assay: Cyclin B1-luciferase reporter degradation (luciferase assay) in mitotic Xenopus egg extract; format: biochemical; details: mitotic Xenopus extract
APC, sequence (A0A1L8ESF3 entry or part of it): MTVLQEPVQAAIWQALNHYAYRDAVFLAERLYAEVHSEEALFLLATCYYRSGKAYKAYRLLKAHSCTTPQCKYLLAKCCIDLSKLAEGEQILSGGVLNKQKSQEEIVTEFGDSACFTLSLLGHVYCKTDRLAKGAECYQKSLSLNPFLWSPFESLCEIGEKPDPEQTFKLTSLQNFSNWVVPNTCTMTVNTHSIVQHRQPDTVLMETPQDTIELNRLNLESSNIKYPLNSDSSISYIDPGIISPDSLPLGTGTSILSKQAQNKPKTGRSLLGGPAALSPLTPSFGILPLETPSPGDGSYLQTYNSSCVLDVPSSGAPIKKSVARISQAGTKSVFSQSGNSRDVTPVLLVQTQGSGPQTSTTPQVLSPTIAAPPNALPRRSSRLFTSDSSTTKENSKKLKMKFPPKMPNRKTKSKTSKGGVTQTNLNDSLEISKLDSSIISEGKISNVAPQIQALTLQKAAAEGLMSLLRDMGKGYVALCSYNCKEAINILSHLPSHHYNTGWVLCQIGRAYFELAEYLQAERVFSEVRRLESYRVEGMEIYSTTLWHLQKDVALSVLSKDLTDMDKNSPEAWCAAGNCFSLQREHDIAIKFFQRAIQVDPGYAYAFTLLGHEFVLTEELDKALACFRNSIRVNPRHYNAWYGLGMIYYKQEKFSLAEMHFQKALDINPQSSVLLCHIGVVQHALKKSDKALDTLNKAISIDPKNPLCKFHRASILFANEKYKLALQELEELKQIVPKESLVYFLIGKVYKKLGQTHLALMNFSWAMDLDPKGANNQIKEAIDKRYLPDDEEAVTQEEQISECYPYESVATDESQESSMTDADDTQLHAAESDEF
APC, sequence (Q6DFD4 entry or part of it, further chain): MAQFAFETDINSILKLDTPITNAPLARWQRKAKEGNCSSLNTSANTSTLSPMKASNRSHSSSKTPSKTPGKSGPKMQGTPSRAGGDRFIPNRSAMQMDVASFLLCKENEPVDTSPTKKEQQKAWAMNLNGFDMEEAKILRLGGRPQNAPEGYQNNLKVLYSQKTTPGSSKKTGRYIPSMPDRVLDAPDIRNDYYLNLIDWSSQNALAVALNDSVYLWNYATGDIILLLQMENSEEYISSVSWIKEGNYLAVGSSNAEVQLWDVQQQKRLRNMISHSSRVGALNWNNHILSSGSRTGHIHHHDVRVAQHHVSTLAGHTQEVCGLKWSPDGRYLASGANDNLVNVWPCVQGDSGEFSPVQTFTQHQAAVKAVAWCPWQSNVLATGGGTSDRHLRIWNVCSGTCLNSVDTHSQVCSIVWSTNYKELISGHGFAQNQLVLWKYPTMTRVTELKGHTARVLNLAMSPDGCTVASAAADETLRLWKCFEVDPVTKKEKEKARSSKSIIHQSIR
Description: The extract was incubated at room temperature and 3 μL samples were taken at 0, 20, 40 and 60 min.

[4] = system: U2OS-H2B-GFP cells; assay: Fluorescence live cell imaging with survival (Cox) analysis, U2OS; format: cell-based, human; details: proTAME 12 μM
Description: Mitotic duration and cell fate were determined by manual inspection of the movies and plotted as Kaplan-Meier curves. The hatch marks on the Kaplan-Meier curved indicate mitotic duration endpoints of censored cells. Includes the combined results of five independent experiments. […] Pairwise comparison between proTAME and proTAME+apcin-M tested using a Cox proportional hazards model stratified by date, using data from only the experimental blocks in which both proTAME and proTAME+apcin were tested.
Movies were manually analyzed using Nikon Elements software or Image J.
Plates were inserted into a covered chamber supplied with humidified 5% CO2 and mounted onto a motorized microscope stage (Prior Scientific). […] A Hamamatsu ORCA cooled CCD camera collected the images with 2×2 binning using Nikon Elements software (version 3.0). Movies were manually analyzed using Nikon Elements software or ImageJ. Mitotic duration was defined as the time from nuclear envelope breakdown until anaphase, in the case of normal mitosis, or until exit from prolonged mitosis as indicated by cytoplasmic blebbing accompanied by changes in chromatin as detected by H2B-GFP.
The Cox proportional hazards model is a semiparameteric approach to modeling time-to-event data, in which covariates are assumed to have constant proportional effects over time relative to a baseline hazard function that can take any form. In this case, stratification on “person” (the individual who analyzed the movie) and “date” (the date the assay was run) allow the baseline hazard function to differ across experimental blocks, but assume a fixed effect of treatment across experimental blocks. The model is thus: hi(t|Z=j)=hj(t)exp(β1×apcini+β2×apcinMi+β3×proTAMEi+β4×proTAMEi:apcinMi+β5×proTAMEi:apcini), j=1 . . . […] This model was fit separately to cells treated with control siRNA or Mad2 siRNA. All statistical analysis was carried out in R 3.0.0 using the functions available as part of the survival package.

[5] = target: APC/C-Cdc20 (Xenopus laevis, UniProt Q6DFD4); assay: Kinetics of APC/C-Cdc20-dependent ubiquitination of cyclin B1 N-terminal fragment; format: biochemical; details: methylated ubiquitin
Description: Measurements of kinetics of ubiquitination were performed using an N-terminal fragment of cyclin B1 and APC/C isolated from Xenopus extract, exactly as previously described (Zeng, X. & King, R. W. Nat Chem Biol 8, 383-392, (2012)).
Kinetic analysis of APC^Cdc20 reactions. Endogenous APC^Cdc20 was isolated from Xenopus extract as described above. The ubiquitination mixture was prepared as described in Cdc20 ubiquitination assay with the exception that 60 μM methylated ubiquitin was used in place of WT ubiquitin. CycB-NT was diluted into the mixture to final concentrations of 1 μM, 500 nM, 250 nM, 125 nM and 62.5 nM prior to the reaction. For each reaction, 2.5 μl beads were mixed with 20 μl ubiquitination mixture and left on a shaker at RT for 30 seconds. The reaction was stopped by adding 7 μl hot 4×LDS sample buffer (Invitrogen NP0007)+[…]. Band intensity of the mono-, di-, and tri-ubiquitinated cycB-NT was quantitated with Image J and fitted to a hyperbolic equation by nonlinear regression.

[6] = system: RPE1-H2B-GFP cells; assay: Fluorescence live cell imaging with survival (Cox) analysis, RPE1; format: cell-based, human; details: proTAME 6 μM; for % rate of mitotic exit: relative to DMSO control, Cox model, apcin/apcin-M 25 μM; for Median mitotic duration: apcin or apcin-M 25 μM
Description: RPE1-H2B-GFP or U2OS-H2B-GFP cells were plated in 24-well glass-bottom plates 18-24 hours prior to siRNA transfection using RNAiMax (Invitrogen). After treatment with compound(s), DIC and GFP images were captured at 6-minute intervals for 45 hours. Movies were manually analyzed using Nikon Elements software or Image J.
RPE1-H2B-GFP or U2OS-H2B-GFP cells were plated in 24-well glass-bottom plates (Greiner BioOne, 662892) 18-24 hours prior to siRNA transfection using RNAiMax (Invitrogen). Plates were inserted into a covered chamber supplied with humidified 5% CO2 and mounted onto a motorized microscope stage (Prior Scientific). DIC and FITC images were captured at 6 minute intervals for 45 hours using a Nikon Ti inverted fluorescence microscope fitted with a 37° C. enclosed incubation chamber and using a 20× Plan Apo 0.75 NA objective lens. A Hamamatsu ORCA cooled CCD camera collected the images with 2×2 binning using Nikon Elements software (version 3.0). Movies were manually analyzed using Nikon Elements software or ImageJ. Mitotic duration was defined as the time from nuclear envelope breakdown until anaphase, in the case of normal mitosis, or until exit from prolonged mitosis as indicated by cytoplasmic blebbing accompanied by changes in chromatin as detected by H2B-GFP.
In order to detect differences in mitotic duration among cells in the live-cell imaging screen, a stratified Cox proportional hazards model (Cox, D. R. Regression models and life tables. J Royal Statistics Soc B34, 187-220, (1972)) was fit to censored mitotic duration times (where cells that are not observed exiting mitosis or dying in mitosis are censored at the last known time in mitosis). The Cox proportional hazards model is a semiparameteric approach to modeling time-to-event data, in which covariates are assumed to have constant proportional effects over time relative to a baseline hazard function that can take any form. In this case, stratification on “person” (the individual who analyzed the movie) and “date” (the date the assay was run) allow the baseline hazard function to differ across experimental blocks, but assume a fixed effect of treatment across experimental blocks. The model is thus: hi(t|Z=j)=hj(t)exp(β1×apcini+β2×apcinMi+β3×proTAMEi+β4×proTAMEi:apcinMi+β5×proTAMEi:apcini), j=1 . . . 4 where hi(t) is the hazard function of cell i at time t, hj(t) is the baseline hazard for strata j (with 4 levels, one for each person and date combination), apcini, proTAMEi, and apcinMi are indicator variables for presence or absence of the compounds apcin, proTAME, and apcin-M, respectively in cell i, proTAMEi:apcini is an indicator variable that is 1 if both proTAME and apcin are present in cell i, and 0 otherwise, and proTAMEi:apcinMi is a similar indicator variable for proTAME+apcin-M. In this model, […] represent the effects of apcin, apcin-M, and proTAME alone, while β4 and β5 represent the additional non-additive effect of the compounds beyond what is predicted from the combination of effects of the two compounds alone. This model was fit separately to cells treated with control siRNA or Mad2 siRNA. All statistical analysis was carried out in R 3.0.0 using the functions available as part of the survival package.
In this model, the β coefficients represent the log hazard ratios for exiting mitosis between treated and untreated cells. However, for ease of interpretation the β coefficients are exponentiated to convert them to normal hazard ratios, and then multiplied by 100 to convert to percentages relative to DMSO. These hazard ratios, which are referred to as mitotic exit rate, represent the relative probability that a treated cell in mitosis at time t will exit mitosis in the next time interval compared to an untreated cell.
For ease of interpretation, the treatment effects are presented relative to DMSO for all individual compounds and compound combinations. […]

**Q.** For `NCCCOC(=O)NC(Nc1ncccn1)C(Cl)(Cl)Cl` (stereo not shown) [apcin-A], which “Activity on proteolysis of N-terminal ^35S-labeled fragment of cyclin B1 relative to apcin” value [1] is on record?
**A.** reduced activity

**Q.** What does the source list for `COC(=O)[C@H](CCCNC(=N)N)NC(C)=O` [AAME, Acetyl-L-Arginine Methyl Ester]?
**A.** Competition with ^3H-TAME for binding to Xenopus APC [2]: did not; Inhibition of cyclin B-luciferase proteolysis [3]: showed only low activity

**Q.** `Cc1ncc([N+](=O)[O-])n1CCOC(=O)NC(Nc1ncccn1)C(Cl)(Cl)Cl` (stereo not shown) [apcin] was tested. Which “Median mitotic duration” value ([4]; Table 7, apcin or apcin-M 25 μM) did it give?
**A.** 24

**Q.** And the “% rate of mitotic exit” value ([4]; relative to DMSO control, Cox model, apcin/apcin-M 25 μM)?
**A.** 109.64%

**Q.** What about the “Effect on Km and kcat of APC-dependent ubiquitination” value [5] of the same compound?
**A.** caused a significant increase (p=0.0039) in the Km (Ki=23 μM) of the reaction but no reduction in kcat

**Q.** And the “% rate of mitotic exit” value ([6]; Mad2 siRNA)?
**A.** 57.38%

**Q.** What about the “Median mitotic duration” value ([6]; Table 3, control siRNA) of the same compound?
**A.** 24

**Q.** What about the “Median mitotic duration” value ([6]; Table 3, mad2 siRNA) of the same compound?
**A.** 19

**Q.** And the “% rate of mitotic exit” value ([6]; control siRNA)?
**A.** 82.87%
